Columns and labels:
BACE1 [1] = target: T1, BACE1 (Homo sapiens, UniProt P56817); assay: BACE1 cell-free assay (BACE1 enzyme assay); type: biochemical
From the text: BACE1 Cell-Free Assay (BACE1 Enzyme Assay)
(§1) The determination of BACE1 activity can be either measured by using an enzymatic cell-free fluorescence assay (BACE1 cell free, table 2) or by a whole cell assay using HEK293 APP cells (Cellular Aβ-lowering, table 2). Both assays are suitable to determine BACE1 inhibition.

BACE2 = target: T2, BACE2 (Homo sapiens, UniProt Q9Y5Z0); assay: BACE2 cell-free assay (BACE2 enzyme assay); type: biochemical; conditions: BACE2 IC50 divided by BACE1 IC50, cell free assays
T2 sequence (Q9Y5Z0 63-518): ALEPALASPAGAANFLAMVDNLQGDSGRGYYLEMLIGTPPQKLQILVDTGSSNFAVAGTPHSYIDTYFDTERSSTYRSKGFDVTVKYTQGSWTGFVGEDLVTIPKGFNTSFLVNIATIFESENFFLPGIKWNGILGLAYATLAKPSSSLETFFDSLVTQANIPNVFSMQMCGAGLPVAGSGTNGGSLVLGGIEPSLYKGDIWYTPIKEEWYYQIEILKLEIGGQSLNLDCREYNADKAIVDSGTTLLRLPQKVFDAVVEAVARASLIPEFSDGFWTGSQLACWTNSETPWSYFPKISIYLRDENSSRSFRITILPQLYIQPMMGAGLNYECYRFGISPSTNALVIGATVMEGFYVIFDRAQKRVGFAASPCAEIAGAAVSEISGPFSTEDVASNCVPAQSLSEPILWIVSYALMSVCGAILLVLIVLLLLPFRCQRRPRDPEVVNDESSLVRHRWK
From the text: BACE2 Cell-Free Assay (BACE2 Enzyme Assay)
Selectivity versus related targets is important in terms of safety of a drug candidate. BACE2 is a close homolog of BACE1. BACE2 was recently reported to play a crucial role in pigmentation of the skin by processing pigment cell-specific melanocyte protein (PMEL). (Proc Natl Acad Sci USA. 2013 Jun. 25; 110(26):10658-63. doi: 10.1073/pnas.1220748110. Epub 2013 Jun. 10). It is believed that PMEL contributes in melanogenesis. Therefore, selectivity versus BACE2 is advantageous when it comes to pigmentation of the skin. The selectivity ratio of BACE2/BACE1 IC50 was calculated by dividing the BACE2 IC50 value by the BACE1 IC50 value determined each in the cell free assay. […] This implies a 3-fold improvement of example 1 compared to comparators 4 and 5.

[2] = tested on: Aβ40 in brain of wild-type mice; assay: Mouse acute in vivo model (inhibition of Aβ40 in brain of wild-type mice); conditions: 4 h post dose; for Brain Aβ-lowering 3 mg/kg: single p.o. dose 3 mg/kg; for Brain Aβ-lowering 10 mg/kg: single p.o. dose 10 mg/kg; for Brain Aβ-lowering 30 mg/kg: single p.o. dose 30 mg/kg
Experimental: Mouse Acute In Vivo Model (Inhibition of Aβ40 in Brain of Wild-Type Mice)
Single Dose Efficacy in Mice
The mouse single dose efficacy was measured in brain homogenate from C57Bl/6J wildtype mice after DEA extraction as described in H. Hilpert et al., J. Med. Chem. 2013, 56, 3980-3995 (dx.doi.org/10.1021/jm400225m).
Aβ 40 concentration was determined after solid phase extraction as described above and following a modified protocol from Perkin-Elmer with a commercially available antibody against the N-terminal part of rat Aβ (252Q6, Invitrogen cat. No. AMB0062) and an in-house C-terminal specific anti-Aβ40 antibody (BAP-24, Brockhaus M. et al., J. Neuroreport, 1998, 9:1481-1486) bound to acceptor beads (PerkinElmer, Cat. 6772002). 20 μl analyte per well (reconstituted extracts or standard) were loaded to a White Optiplate-96 (Perkin-Elmer, Cat#6005290). Then, a mixture of biotinylated BAP24 antibody (1:2000 diluted at approximately 1 nM final concentration) and antibody 252Q6 bound to AlphaLISA acceptor beads (Perkin-Elmer cat. No. 6772002 (1:100 diluted, 10 ug/mL final concentration) in 1× AlphaLISA buffer (Perkin-Elmer, AL000F) was added. After 1 hour room temperature incubation in the dark, 20 uL of a streptavidin coated donor beads dilution (40 μg/mL) were added and incubated for 30 minutes in the dark. Light emission at 615 nm was recorded using an EnVision AlphaScreen Reader (Perkin-Elmer). Levels of Aβ40 were calculated as percentage of the baseline samples from non-treated animals.
Aβ40 lowering was determined after oral administration in wild-type mice (C57Bl/6J mice, n=3-4) 4 h post dosing. Wild-type mice were used as they have a normal physiological level of APP expression and are thus expected to provide a better physiological model for Aβ-peptide production than APP-transgenic organisms. In vivo efficacy is a key factor for appropriate drug candidates, being more relevant than in vitro activities.

Human P-gp = Human P-gp (Homo sapiens, UniProt P08183); assay: P-gp transport assay (human); type: in vitro ADME; conditions: efflux ratio
Human P-gp, sequence (P08183 whole entry): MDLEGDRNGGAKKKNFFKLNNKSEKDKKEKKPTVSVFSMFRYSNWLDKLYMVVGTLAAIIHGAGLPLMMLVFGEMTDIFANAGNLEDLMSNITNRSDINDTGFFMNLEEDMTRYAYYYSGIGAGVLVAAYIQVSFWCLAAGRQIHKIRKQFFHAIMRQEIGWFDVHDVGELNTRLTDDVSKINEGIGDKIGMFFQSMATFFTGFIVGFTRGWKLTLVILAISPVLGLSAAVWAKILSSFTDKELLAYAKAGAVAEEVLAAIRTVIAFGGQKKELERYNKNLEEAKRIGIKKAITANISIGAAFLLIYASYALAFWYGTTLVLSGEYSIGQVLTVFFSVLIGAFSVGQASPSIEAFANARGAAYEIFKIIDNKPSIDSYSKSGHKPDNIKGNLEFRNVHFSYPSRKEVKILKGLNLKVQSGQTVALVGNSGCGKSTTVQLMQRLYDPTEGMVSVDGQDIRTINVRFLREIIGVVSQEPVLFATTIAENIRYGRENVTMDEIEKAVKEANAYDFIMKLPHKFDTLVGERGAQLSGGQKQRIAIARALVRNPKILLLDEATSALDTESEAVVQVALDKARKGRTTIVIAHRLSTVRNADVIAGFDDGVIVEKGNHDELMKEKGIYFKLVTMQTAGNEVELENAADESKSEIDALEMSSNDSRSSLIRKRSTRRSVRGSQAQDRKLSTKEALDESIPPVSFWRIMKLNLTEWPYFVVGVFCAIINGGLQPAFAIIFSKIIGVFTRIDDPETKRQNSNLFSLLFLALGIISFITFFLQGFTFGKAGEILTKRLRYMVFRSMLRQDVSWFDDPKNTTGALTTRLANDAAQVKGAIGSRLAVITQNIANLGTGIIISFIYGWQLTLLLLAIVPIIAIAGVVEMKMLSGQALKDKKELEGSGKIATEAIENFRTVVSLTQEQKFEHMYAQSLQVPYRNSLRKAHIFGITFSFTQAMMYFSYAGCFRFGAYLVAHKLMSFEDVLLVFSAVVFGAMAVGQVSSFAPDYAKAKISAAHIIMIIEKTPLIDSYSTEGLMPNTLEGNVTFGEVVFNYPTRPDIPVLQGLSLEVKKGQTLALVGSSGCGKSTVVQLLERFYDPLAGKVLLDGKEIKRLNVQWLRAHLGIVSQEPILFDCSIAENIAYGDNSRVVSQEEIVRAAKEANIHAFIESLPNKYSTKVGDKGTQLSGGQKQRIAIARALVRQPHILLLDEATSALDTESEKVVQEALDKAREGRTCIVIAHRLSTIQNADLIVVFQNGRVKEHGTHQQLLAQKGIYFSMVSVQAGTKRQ
From the text: (§2) P-Gp Transport Assay (Human and Mouse) (P-Gp Assay)
(§3) In the assay of the P-gp efflux ratio ER as described hereinabove, a compound with ER<2.5 is regarded most suitable. In addition, compounds with low hERG channel binding are suitable as well.

Mouse P-gp = Mouse P-gp (Mus musculus, UniProt P21447); assay: P-gp transport assay (mouse); type: in vitro ADME; conditions: efflux ratio
Mouse P-gp, sequence (P21447 whole entry): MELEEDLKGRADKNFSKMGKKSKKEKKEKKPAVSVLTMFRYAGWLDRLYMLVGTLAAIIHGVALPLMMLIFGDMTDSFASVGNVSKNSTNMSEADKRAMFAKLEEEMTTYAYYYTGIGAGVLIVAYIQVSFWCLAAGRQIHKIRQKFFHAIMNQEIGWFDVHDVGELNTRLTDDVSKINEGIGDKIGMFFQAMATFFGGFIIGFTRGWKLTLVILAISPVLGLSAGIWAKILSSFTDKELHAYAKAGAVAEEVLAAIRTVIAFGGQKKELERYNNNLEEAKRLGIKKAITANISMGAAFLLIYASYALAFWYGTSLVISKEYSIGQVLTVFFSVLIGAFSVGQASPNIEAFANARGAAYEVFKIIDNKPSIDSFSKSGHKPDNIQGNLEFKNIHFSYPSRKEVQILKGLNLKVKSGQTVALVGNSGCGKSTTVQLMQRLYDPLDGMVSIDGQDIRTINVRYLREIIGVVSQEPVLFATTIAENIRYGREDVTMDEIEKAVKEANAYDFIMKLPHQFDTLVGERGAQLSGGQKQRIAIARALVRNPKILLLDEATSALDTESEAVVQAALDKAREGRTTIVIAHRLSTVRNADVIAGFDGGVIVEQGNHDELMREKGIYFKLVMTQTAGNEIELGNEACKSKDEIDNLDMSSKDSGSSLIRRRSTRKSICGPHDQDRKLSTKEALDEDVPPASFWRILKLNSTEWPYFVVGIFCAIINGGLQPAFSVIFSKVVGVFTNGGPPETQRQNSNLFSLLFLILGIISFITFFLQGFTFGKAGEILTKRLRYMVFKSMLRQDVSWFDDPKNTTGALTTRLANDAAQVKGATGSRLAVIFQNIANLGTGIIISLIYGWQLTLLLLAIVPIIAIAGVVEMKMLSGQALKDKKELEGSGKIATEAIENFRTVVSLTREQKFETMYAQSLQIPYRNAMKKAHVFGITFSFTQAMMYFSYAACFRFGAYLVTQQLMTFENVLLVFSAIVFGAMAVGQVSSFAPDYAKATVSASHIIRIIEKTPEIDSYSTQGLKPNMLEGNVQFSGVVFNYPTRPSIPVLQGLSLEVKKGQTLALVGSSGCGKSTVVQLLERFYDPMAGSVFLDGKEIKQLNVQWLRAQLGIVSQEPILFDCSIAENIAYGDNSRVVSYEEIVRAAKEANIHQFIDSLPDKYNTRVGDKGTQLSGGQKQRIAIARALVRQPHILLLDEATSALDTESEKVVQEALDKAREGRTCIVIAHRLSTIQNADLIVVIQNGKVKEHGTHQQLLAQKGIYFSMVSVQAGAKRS
From the text: as §2, §3

BACE1 [3] = target: T1, BACE1; assay: Cellular Aβ-lowering assay (Abeta 40 AlphaLISA, HEK293 APP cells); type: cell-based; set-up: endogenous in cells; host or cells: HEK293 APP cells
Experimental: Cellular Aβ-Lowering Assay:
The Abeta 40 AlphaLISA Assay can be used. The HEK293 APP cells were seeded in 96 well Microtiter plates in cell culture medium (Iscove's, plus 10% (v/v) fetal bovine serum, penicillin/streptomycin) to about 80% confluency and the compounds were added at a 3× concentration in ⅓ volume of culture medium (final DMSO concentration was kept at 1% v/v). After 18-20 hrs incubation at 37° C. and 5% CO2 in a humidified incubator, the culture supernatants were harvested for the determination of AP 40 concentrations using Perkin-Elmer Human Amyloid beta 1-40 (high specificity) Kit (Cat#AL275C).
In a Perkin-Elmer White Optiplate-384 (Cat#6007290), 2 ul culture supernatants were combined with 2 μl of a 10× AlphaLISA Anti-hAP Acceptor beads+Biotinylated Antibody Anti-Aβ 1-40 Mix (50 μg/mL/5 nM). After 1 hour room temperature incubation, 16 μl of a 1.25× preparation of Streptavidin (SA) Donor beads (25 μg/mL) were added and incubated for 30 minutes in the Dark. Light Emission at 615 nm was then recorded using EnVision-Alpha Reader. Levels of AP 40 in the culture supernatants were calculated as percentage of maximum signal (cells treated with 1% DMSO without inhibitor). The IC50 value were calculated using the Excel XLfit software.
Cellular Aβ-Lowering Assay (Cell-Based Assay)
as §1

hERG channel = hERG channel (Homo sapiens, UniProt Q12809); assay: hERG IC20 assay; type: cell-based; conditions: for IC20: human, hERG IC20 assay
hERG channel, sequence (Q12809 whole entry): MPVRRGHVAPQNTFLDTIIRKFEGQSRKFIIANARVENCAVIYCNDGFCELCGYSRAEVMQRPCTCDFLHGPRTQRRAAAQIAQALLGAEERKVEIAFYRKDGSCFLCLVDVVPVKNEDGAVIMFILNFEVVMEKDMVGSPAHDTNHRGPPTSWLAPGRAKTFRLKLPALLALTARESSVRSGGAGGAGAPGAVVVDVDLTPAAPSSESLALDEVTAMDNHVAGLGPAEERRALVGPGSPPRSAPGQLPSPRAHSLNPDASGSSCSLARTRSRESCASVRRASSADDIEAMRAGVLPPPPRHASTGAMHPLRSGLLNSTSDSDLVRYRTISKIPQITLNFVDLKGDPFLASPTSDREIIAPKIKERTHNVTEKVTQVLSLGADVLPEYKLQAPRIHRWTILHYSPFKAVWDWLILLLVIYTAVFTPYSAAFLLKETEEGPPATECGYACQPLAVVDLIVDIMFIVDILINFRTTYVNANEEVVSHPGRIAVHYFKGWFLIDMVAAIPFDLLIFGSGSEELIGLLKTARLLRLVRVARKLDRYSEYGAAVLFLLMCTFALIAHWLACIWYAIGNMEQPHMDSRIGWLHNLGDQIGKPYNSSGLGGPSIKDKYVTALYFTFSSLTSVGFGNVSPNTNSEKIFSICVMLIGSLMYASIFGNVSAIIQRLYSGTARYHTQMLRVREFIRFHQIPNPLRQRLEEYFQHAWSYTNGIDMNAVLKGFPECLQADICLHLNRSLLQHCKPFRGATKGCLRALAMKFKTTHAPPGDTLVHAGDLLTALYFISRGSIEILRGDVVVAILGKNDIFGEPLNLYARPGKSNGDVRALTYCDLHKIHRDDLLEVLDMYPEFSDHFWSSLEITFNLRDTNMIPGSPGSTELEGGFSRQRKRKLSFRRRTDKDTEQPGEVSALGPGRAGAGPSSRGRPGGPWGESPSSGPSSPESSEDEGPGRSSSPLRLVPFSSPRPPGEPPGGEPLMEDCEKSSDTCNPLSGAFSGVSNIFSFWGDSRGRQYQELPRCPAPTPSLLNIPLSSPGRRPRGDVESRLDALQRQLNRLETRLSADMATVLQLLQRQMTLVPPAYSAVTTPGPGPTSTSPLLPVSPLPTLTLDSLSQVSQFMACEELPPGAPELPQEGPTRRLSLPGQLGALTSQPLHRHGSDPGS
From the text: The methods to determine the hERG IC20 values was described in Industrializing electrophysiology: HT automated patch clamp on SyncroPatch® 96 using instant frozen cells. Polonchuk L., Methods Mol Biol. 2014; 1183:81-92. (doi: 10.1007/978-1-4939-1096-0_5.) PMID:25023303
QT prolongation is a cardiovascular risk caused by drug candidates which inhibit the hERG channel (human ether a go-go). A sufficient safety margin between the hERG IC20 value and the free plasma concentration necessary to achieve the envisaged thereapeutic effects is desired (ICH. The nonclinical evaluation of the potential for delayed ventricular repolarization (QT interval prolongation) by human pharmaceuticals (S7B), issued as CPMP/ICH/423/02, adopted by CHMP in May 2005 (http://www.ich.org/cache/compo/276-254-1.html; Redfern W S, Carlsson L, Davis A S, Lynch W G, MacKenzie I, Palethorpe S, Siegl P K, Strang I, Sullivan A T, Wallis R, Camm A J, Hammond T G. Relationships between preclinical cardiac electrophysiology, clinical QT interval prolongation and torsade de pointes for a broad range of drugs: evidence for a provisional safety margin in drug development. Cardiovasc Res. 2003 Apr. 1; 58(1):32-45.)). Reducing the activity against efflux transporters expressed at the blood-brain-barrier such as P-glycoprotein P-gp, might result in reduction of the free plasma concentration by optimizing brain penetration.

[4] = HEK293 APP cells, Aβ40 in supernatant, read-out: BACE1 cell act. Aβ40 IC50

T1 sequence (P56817 46-501): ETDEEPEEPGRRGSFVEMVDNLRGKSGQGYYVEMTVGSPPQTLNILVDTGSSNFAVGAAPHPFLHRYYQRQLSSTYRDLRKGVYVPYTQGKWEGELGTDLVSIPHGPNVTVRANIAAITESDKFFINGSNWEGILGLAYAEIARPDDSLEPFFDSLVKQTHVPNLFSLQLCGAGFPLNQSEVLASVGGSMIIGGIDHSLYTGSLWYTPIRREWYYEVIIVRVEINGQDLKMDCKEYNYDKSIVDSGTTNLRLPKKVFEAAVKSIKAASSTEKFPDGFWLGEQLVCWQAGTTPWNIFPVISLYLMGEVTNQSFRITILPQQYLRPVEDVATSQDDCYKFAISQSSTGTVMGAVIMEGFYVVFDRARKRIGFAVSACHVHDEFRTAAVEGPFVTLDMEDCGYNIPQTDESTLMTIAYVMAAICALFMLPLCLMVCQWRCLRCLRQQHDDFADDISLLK

| Compound | IC50 (BACE1 [1]) [nM] | BACE2/BACE1 IC50 ratio (BACE2) | Brain Aβ-lowering 3 mg/kg [2] [%] | Brain Aβ-lowering 10 mg/kg [2] [%] | Brain Aβ-lowering 30 mg/kg [2] [%] | Human P-gp ER (Human P-gp) | Mouse P-gp ER (Mouse P-gp) | IC50 (BACE1 [3]; [4]) [nM] | Brain Aβ-lowering 3 mg/kg ([2]; listed as comparator 5) [%] | higher affinity to hERG than example 1 (hERG channel) [fold] | IC20 (hERG channel) [nM] | IC50 (BACE1 [3]; read-out: cellular potency) [nM] | IC20 (hERG channel; instant frozen cells (hERG channel, automated patch clamp)) [nM] |
| --- | --- | --- | --- | --- | --- | --- | --- | --- | --- | --- | --- | --- | --- |
| C[C@]1(c2nc(NC(=O)c3ccc(C#N)cn3)ccc2F)N=C(N)O[C@H](C(F)(F)F)C1(F)F [Comparator 1, N-(6-((4R,6S)-2-Amino-5,5-difluoro-4-methyl-6-(trifluoromethyl)-5,6-dihydro-4H-1,3-oxazin-4-yl)-5-fluoropyridin-2-yl)-5-cyanopicolinamide] | 29 | 3.0 | 2 | 4 | 66 | 1.4 | 1.3 | 324 | – | – | – | – | – |
| C[C@]1(c2nc(NC(=O)c3ccc(C#N)cn3)ccc2F)N=C(N)O[C@@H](C(F)(F)F)[C@@H]1F [Comparator 7] | – | – | – | – | 70 | – | – | – | – | – | – | – | – |
| Cc1cc(C#N)cnc1C(=O)Nc1ccc(F)c([C@]2(C)C[C@@H](C(F)(F)F)OC(N)=N2)n1 [Comparator 5] | – | – | 7 | 70 | – | 3.3 | 8.1 | – | 7 | 5.3 | 440 | – | – |
| Cc1cc(C#N)cnc1C(=O)Nc1ccc(F)c([C@@]2(C)N=C(N)O[C@H](C(F)(F)F)C2(F)F)n1 [Comparator 2, N-(6-((4R,6S)-2-Amino-5,5-difluoro-4-methyl-6-(trifluoromethyl)-5,6-dihydro-4H-1,3-oxazin-4-yl)-5-fluoropyridin-2-yl)-5-cyano-3-methylpicolinamide] | 19 | 3.0 | 10 | 42 | – | – | 1.4 | 203 | – | – | – | – | – |
| C[C@]1(c2nc(NC(=O)c3ccc(C#N)cn3)ccc2F)N=C(N)O[C@@H](C(F)(F)F)C1(F)F [Comparator 3, N-(6-((4R,6R)-2-Amino-5,5-difluoro-4-methyl-6-(trifluoromethyl)-5,6-dihydro-4H-1,3-oxazin-4-yl)-5-fluoropyridin-2-yl)-5-cyanopicolinamide] | – | – | – | – | – | – | – | 37400 | – | – | – | > 35000 | – |
| C[C@@]1(c2nc(NC(=O)c3ccc(C#N)cn3)ccc2F)C[C@@H](C(F)(F)F)OC(N)=N1 [Comparator 4] | 33 | – | – | – | – | – | – | 4 | – | – | 40 | – | 40 |

Source: patent publication US20190055231A1, “BACE1 INHIBITORS” (Hoffmann-La Roche Inc., priority 2016, published 2019)
